Measurements: paper PMC7598271, “In Vitro Studies to Define the Cell-Surface and Intracellular Targets of Polyarginine-Conjugated Sodium Borocaptate as a Potential Delivery Agent for Boron Neutron Capture Therapy” (Cells, 2020)

Columns and labels:
[1] = molecular target: T1, poly(A)-binding protein 1 (PABP1) (Homo sapiens, UniProt P11940); assay: Immunoprecipitation with anti-BSH antibody from U251 cell lysate, Western blotting
T1 construct: we performed immunoprecipitation from the pre-cleaned lysate of U251 cells; endogenous in cells; host or cells: U251 (U251MG) glioma cells
T1 sequence (P11940 whole entry): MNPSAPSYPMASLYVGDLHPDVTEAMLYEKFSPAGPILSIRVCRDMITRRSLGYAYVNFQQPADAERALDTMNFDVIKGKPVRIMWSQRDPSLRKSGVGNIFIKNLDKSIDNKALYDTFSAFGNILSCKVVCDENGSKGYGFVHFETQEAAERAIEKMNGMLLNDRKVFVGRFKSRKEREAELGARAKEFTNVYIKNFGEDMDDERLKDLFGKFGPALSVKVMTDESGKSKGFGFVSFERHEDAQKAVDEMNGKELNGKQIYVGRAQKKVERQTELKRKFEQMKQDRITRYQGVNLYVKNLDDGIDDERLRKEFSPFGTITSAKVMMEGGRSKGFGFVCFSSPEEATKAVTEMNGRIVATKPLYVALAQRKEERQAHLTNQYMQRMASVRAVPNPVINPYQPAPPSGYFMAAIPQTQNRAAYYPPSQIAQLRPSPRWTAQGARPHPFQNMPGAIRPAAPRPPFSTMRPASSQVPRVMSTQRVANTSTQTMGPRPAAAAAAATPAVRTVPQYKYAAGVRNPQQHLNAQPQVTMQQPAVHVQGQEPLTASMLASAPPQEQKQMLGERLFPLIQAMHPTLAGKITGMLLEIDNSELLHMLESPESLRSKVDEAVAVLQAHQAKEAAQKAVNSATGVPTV
Method: (§1) Western blotting was performed as previously described. The cells were lysed in cell lysis buffer (20 mM Tris-HCl (pH =7.5), 150 mM NaCl, 1 mM EDTA, 1 mM Na2EGTA (ethylene glycol-bis(β-aminoethyl ether)-N,N,N′,N′-tetraacetic acid), 0.5% Triton X-100) supplemented with cOmplete Protease Inhibitor Cocktail (Sigma-Aldrich Co. LLC, St. Louis, MO, USA), and PhosSTOP phosphatase inhibitor cocktail (Sigma-Aldrich Co. LLC, St. Louis, MO, USA). After sonication and centrifugation (15,000 rpm, 4 °C, 10 min), the protein concentration of the supernatants was measured using a bicinchoninic acid (BCA) protein assay (Thermo Fisher Scientific, Inc., Waltham, MA, USA). The supernatants were added to 1/3 volume of 4x SDS sample buffer (240 mM Tris-HCl (pH=6.8), 8% sodium dodecyl sulfate (SDS), 40% glycerol, 0.1% bromophenol blue, 20% 2-mercaptoethanol) and boiled at 95 °C for 5 min. Then, the samples were applied to SDS-polyacrylamide gel electrophoresis (PAGE) and transferred to polyvinylidene fluoride (PVDF) membrane (Immobilon-P, 0.45 µm) (MilliporeSigma, Burlington, MA, USA). The membranes were blocked with 0.5% skim milk (nacalai tesque, Kyoto, Japan) in tris-buffered saline with tween20 (TBST, 137 mM NaCl, 2.68 mM KCl, 25 mM Tris (pH=7.4), 0.1% Tween20) and incubated with primary antibodies for 16 h at 4 °C and secondary antibodies for 1 h at room temperature. The signals were developed with Clarity Western enhanced chemiluminescence (ECL) Substrate (Bio-Rad Laboratories, Inc., Hercules, CA, USA) and detected with a ChemiDoc imaging system (Bio-Rad Laboratories, Inc., Hercules, CA, USA).
(§2) Immunoprecipitation was performed as previously described with modification. Briefly, the cells were lysed in cell lysis buffer supplemented with cOmplete Protease Inhibitor Cocktail and PhosSTOP phosphatase inhibitor cocktail. The lysate was passed through a 23G needle syringe 10 times and centrifuged at 15,000 rpm, at 4 °C, for 10 min. […]

[2] = system: U251MG cells; assay: Immunofluorescent analysis of cellular uptake with anti-BSH antibody; assay type: cell-based, human; settings: U251 glioma cells, 20 µM, immunofluorescent analysis (Figure 1B)
Method: Human glioma cell lines U87MG and U251MG, human breast cancer cell lines MCF7 and MDA-MB-231, human pancreatic cancer cell lines CFPAC1 and PANC1, and murine mammary gland cell line NMuMG, were cultured in Dulbecco’s modified Eagle’s medium (DMEM) (FUJIFILM Wako Pure Chemical Corporation, Osaka, Japan) with 10% fetal bovine serum (FBS) (Corning Inc., Corning, NY, USA) and penicillin/streptomycin/L-glutamine (Fujifilm-Wako, Japan) as previously described. U87MG, MDA-MB-231, CFPAC-1, PANC-1, and NMuMG were obtained from the American Type Culture Collection (ATCC, Manassas, VA, USA) (catalogue number: HTB-14, HTB-26, CRL-1918, CRL-1469, and CRL-1636, respectively). U251MG and MCF7 were obtained from the Japanese Collection of Research Bioresources Cell Bank (JCRB, Ibaraki, Japan) (catalogue number: IFO50288 and JCRB0134, respectively).
(§3) The immunostaining of cells was performed as previously described with brief modifications. The cells were fixed with 4% paraformaldehyde (PFA) for 15 min, permeated with 0.05% Triton X-100 for 10 min, and blocked with 5% goat serum. Then, the samples were incubated with primary antibodies for 16 h at 4 °C and secondary antibodies for 1 h at room temperature. Primary antibodies against CD44 were purchased from Abcam (Cambridge, UK) (ab157107). Antibodies against the BSH molecule (clone#: 36-2H or 38-5C) were developed by ITM Co., Ltd. (Nagano, Japan). […]

[3] = system: NMuMG-GFP, NMuMG-HRas/shp53 and NMuMG-HRas/shp53/YAP1 cells; assay: Immunofluorescent analysis of uptake in transformed NMuMG cells; assay type: cell-based, murine; settings: BSH 2 mM, NMuMG-HRas/shp53, NMuMG-HRas/shp53/YAP1 (Figure 4C)
Excerpt: For transformation of the NMuMG cells, we prepared virus particles of pTomo-HRas/shRNA-p53 (Vector plasmid was a kind gift from Dr. Dinorah Morvinski, Tel Aviv University), pTomo (Addgene, #26291), FUW-tetO-wtYAP (Addgene, #84009), and FUdeltaGW-rtTA (Addgene, #19780), and infected cells in the same manner as written above. After the infection of pTomo viruses (pTomo-HRas/shRNA-p53 was used for malignant transformation, with pTomo for a negative control), the cells were further treated with adenovirus harboring Cre recombinase (cat#ADV-005) (Cell Biolabs Inc., San Diego, CA, USA), to activate the HRas expression cassette. The transformation was confirmed by the acquisition of the spheroid-forming capacity and morphological change (epithelial to spindle form).
as §3

[4] = molecular target: T2, eIF4A (Homo sapiens, UniProt P60842); assay: Immunoprecipitation with anti-BSH antibody from U251 cell lysate, Western blotting; assay type: binding; settings: lysate with or without 10 µg/mL RNase A, 1 h at room temperature (Figure 6B)
T2 construct: we performed immunoprecipitation from the pre-cleaned lysate of U251 cells; endogenous in cells; host or cells: U251 glioma cell lysate
T2 sequence (P60842 whole entry): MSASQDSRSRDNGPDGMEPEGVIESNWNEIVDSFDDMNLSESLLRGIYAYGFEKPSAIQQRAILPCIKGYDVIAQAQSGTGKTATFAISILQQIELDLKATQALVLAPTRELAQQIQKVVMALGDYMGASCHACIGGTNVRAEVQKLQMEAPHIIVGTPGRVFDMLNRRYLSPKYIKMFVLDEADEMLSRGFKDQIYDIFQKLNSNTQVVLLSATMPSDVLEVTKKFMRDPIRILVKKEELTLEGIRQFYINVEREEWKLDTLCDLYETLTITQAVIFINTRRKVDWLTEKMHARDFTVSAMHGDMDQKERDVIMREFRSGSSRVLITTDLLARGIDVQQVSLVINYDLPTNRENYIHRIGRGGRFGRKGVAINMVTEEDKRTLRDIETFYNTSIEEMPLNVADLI
Method: as §1, with “MA, USA). […] The signals” for “MA, USA). The membranes were blocked with 0.5% skim milk (nacalai tesque, Kyoto, Japan) in tris-buffered saline with tween20 (TBST, 137 mM NaCl, 2.68 mM KCl, 25 mM Tris (pH=7.4), 0.1% Tween20) and incubated with primary antibodies for 16 h at 4 °C and secondary antibodies for 1 h at room temperature. The signals”, “CA, USA). […]” for “CA, USA).”

[5] = system: CD44 protein; assay: Immunoprecipitation with anti-BSH antibody and Western blotting for CD44; assay type: binding, human; settings: MDA-MB-231 cell lysate 2000 µg/mL, compound 20 µM, 1 h at 4 °C, anti-BSH antibody 10 µg/mL, Western blotting (Figure 3A)
Method: as §1, with “MA, USA). […] The signals” for “MA, USA). The membranes were blocked with 0.5% skim milk (nacalai tesque, Kyoto, Japan) in tris-buffered saline with tween20 (TBST, 137 mM NaCl, 2.68 mM KCl, 25 mM Tris (pH=7.4), 0.1% Tween20) and incubated with primary antibodies for 16 h at 4 °C and secondary antibodies for 1 h at room temperature. The signals”, “CA, USA). […]” for “CA, USA).”

[6] = molecular target: T3, eIF4G (Homo sapiens, UniProt Q04637); assay: Immunoprecipitation with anti-BSH antibody from U251 cell lysate, Western blotting; assay type: binding
T3 construct: we performed immunoprecipitation from the pre-cleaned lysate of U251 cells; endogenous in cells; host or cells: U251 (U251MG) glioma cells
T3 sequence (Q04637 whole entry): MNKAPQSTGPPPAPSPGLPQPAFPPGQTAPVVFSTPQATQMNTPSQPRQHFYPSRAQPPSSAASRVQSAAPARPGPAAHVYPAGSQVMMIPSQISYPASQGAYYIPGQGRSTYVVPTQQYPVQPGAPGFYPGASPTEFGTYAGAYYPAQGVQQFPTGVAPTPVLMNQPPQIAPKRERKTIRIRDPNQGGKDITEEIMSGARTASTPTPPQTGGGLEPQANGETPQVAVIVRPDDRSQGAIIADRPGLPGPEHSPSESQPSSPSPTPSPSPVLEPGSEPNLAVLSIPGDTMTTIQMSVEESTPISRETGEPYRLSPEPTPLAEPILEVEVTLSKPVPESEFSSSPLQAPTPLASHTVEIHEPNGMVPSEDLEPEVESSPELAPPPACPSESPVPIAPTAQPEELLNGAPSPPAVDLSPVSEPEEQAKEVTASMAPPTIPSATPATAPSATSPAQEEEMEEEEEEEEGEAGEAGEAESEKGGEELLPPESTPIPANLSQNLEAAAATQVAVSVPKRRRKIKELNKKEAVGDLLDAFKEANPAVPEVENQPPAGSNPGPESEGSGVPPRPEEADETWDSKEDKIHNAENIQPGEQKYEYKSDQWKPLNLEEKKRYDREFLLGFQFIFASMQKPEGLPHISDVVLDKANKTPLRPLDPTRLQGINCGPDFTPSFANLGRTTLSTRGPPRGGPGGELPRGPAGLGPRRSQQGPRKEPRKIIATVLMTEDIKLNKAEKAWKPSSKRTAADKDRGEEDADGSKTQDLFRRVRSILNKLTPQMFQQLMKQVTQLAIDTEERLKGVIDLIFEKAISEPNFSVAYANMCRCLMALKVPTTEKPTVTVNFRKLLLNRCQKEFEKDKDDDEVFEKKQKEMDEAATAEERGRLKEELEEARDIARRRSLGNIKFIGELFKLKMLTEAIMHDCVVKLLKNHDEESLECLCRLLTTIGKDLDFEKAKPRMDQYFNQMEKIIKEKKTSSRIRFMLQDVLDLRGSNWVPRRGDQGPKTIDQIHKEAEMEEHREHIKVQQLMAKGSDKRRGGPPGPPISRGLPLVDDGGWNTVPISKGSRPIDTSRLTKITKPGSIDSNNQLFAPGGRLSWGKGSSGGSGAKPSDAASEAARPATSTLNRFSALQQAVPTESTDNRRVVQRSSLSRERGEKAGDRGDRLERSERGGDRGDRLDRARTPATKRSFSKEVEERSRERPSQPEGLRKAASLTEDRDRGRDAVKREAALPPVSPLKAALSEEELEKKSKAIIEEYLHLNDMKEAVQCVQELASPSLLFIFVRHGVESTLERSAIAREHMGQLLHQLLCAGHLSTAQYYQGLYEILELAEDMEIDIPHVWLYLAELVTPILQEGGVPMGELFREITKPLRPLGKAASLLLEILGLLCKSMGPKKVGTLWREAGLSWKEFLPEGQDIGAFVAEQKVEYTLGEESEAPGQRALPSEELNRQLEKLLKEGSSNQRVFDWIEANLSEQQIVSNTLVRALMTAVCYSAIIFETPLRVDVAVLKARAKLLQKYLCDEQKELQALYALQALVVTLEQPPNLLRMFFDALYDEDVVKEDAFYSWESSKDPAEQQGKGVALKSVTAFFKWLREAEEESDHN
Method: as §1, §2

[7] = molecular target: T4, eRF3 (Homo sapiens, UniProt P15170); assay: as above; assay type: binding; settings: lysate with or without 10 µg/mL RNase A, 1 h at room temperature (Figure 6B)
T4 construct: we performed immunoprecipitation from the pre-cleaned lysate of U251 cells; endogenous in cells; host or cells: U251 glioma cell lysate
T4 sequence (P15170 whole entry): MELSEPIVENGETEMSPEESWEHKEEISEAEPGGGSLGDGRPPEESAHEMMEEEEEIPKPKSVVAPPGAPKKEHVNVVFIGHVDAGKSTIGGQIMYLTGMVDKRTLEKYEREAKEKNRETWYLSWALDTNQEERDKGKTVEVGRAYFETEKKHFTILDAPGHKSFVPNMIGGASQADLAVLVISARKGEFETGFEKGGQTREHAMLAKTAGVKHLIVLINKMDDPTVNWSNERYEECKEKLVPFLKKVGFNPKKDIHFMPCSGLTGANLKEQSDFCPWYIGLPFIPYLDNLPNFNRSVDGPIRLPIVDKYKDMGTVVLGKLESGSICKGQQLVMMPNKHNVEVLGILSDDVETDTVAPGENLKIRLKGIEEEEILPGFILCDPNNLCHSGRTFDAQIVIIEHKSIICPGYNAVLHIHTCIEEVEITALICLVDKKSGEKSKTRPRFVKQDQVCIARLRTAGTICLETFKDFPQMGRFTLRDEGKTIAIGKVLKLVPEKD
Method: as §1, §2

[8] = immunoprecipitation with 20 µM of BSH, BSH-3R, BSH-11R (Figure 7A)
[9] = lysate with or without 10 µg/mL RNase A, 1 h at room temperature (Figure 6B)

## mercaptoundecahydrododecaborate [BSH]
[1]; [8]
  PABP1 binding, dependence on arginine length: bound to BSH in an RNA-dependent manner
[1]; [9]
  RNA dependence of binding to PABP1: bound to PABP1 in the presence of RNA
[1]; pre-cleaned U251 lysate, 20 µM (Figure 6A)
  binding to PABP1 (immunoprecipitation): had a binding capacity with poly(A)-binding protein 1 (PABP1)
[2]
  passage through the plasma membrane: could not
[3]
  BSH immunofluorescent signal in cells: did not show any signals in all types of cells
[4]
  RNA dependence of binding to eIF4A: did not bind to BSH in the presence or absence of RNA
[5]
  co-precipitation of CD44 protein with anti-BSH antibody: failed to precipitate CD44
[6]; [8]
  eIF4G binding, dependence on arginine length: did not observe a significant difference
[6]; [9]
  RNA dependence of binding to eIF4G: little eIF4G was pulled-down with BSH in the presence of RNA
[7]
  binding to eRF3: did not bind to BSH
